# Assays:
# MOLT-4 = test: Growth inhibition of human MOLT4 cells incubated for 48 hrs by sulforhodamine B assay; assay type: functional, cell-based; conditions: MOLT-4, 48 h
# A549 [1] = test: Growth inhibition of human A549/ATCC cells incubated for 48 hrs by sulforhodamine B assay; assay type: functional, cell-based; conditions: A549, 48 h
# HCC 2998 = test: Growth inhibition of human HCC2998 cells incubated for 48 hrs by sulforhodamine B assay; assay type: functional, cell-based; conditions: HCC 2998, 48 h
# SK-MEL-2 = test: Growth inhibition of human SK-MEL-2 cells incubated for 48 hrs by sulforhodamine B assay; assay type: functional, cell-based; conditions: SK-MEL-2, 48 h
# PC-3 [2] = test: Growth inhibition of human PC3 cells incubated for 48 hrs by sulforhodamine B assay; assay type: functional, cell-based; conditions: PC-3, 48 h
# DU-145 [3] = test: Growth inhibition of human DU145 cells incubated for 48 hrs by sulforhodamine B assay; assay type: functional, cell-based; conditions: DU-145, 48 h
# Hs-578T [4] = test: Growth inhibition of human Hs578T cells incubated for 48 hrs by sulforhodamine B assay; assay type: functional, cell-based
# HL-60(TB) [5] = test: Growth inhibition of human HL-60(TB) cells assessed as cell growth at 0.01 uM incubated for 48 hrs by sulforhodamine B assay relative to control; assay type: functional; conditions: HL-60, 48 h, read-out: Activity
# NCI-H522 = test: Growth inhibition of human NCI-H522 cells assessed as cell growth at 0.01 uM incubated for 48 hrs by sulforhodamine B assay relative to control; assay type: functional; conditions: NCI-H522, 48 h, read-out: Activity
# HL-60(TB) [6] = test: Growth inhibition of human HL-60(TB) cells assessed as cell growth at 0.1 uM incubated for 48 hrs by sulforhodamine B assay relative to control; assay type: functional; conditions: HL-60, 48 h, read-out: Activity
# RPMI-8226 = test: Growth inhibition of human RPMI8226 cells assessed as cell growth at 0.1 uM incubated for 48 hrs by sulforhodamine B assay relative to control; assay type: functional; conditions: RPMI-8226, 48 h, read-out: Activity
# Malme-3M = test: Growth inhibition of human MALME-3M cells assessed as cell growth at 0.1 uM incubated for 48 hrs by sulforhodamine B assay relative to control; assay type: functional; conditions: read-out: Activity
# OVCAR-3 = test: Growth inhibition of human OVCAR3 cells assessed as cell growth at 0.1 uM incubated for 48 hrs by sulforhodamine B assay relative to control; assay type: functional; conditions: OVCAR-3, 48 h, read-out: Activity
# NCI/ADR-RES = test: Growth inhibition of human NCI/ADR-RES cells assessed as cell growth at 1 uM incubated for 48 hrs by sulforhodamine B assay relative to control; assay type: functional; conditions: read-out: Activity
# CAKI-1 = test: Growth inhibition of human Caki1 cells assessed as cell growth at 1 uM incubated for 48 hrs by sulforhodamine B assay relative to control; assay type: functional; conditions: CAKI-1, 48 h, read-out: Activity
# RXF 393 = test: Growth inhibition of human RXF393 cells assessed as cell growth at 1 uM incubated for 48 hrs by sulforhodamine B assay relative to control; assay type: functional; conditions: RXF 393, 48 h, read-out: Activity
# DU-145 [7] = test: Growth inhibition of human DU145 cells assessed as cell growth at 1 uM incubated for 48 hrs by sulforhodamine B assay relative to control; assay type: functional; conditions: DU-145, 48 h, read-out: Activity
# MCF7 = test: Growth inhibition of human MCF7 cells assessed as cell growth at 1 uM incubated for 48 hrs by sulforhodamine B assay relative to control; assay type: functional; conditions: MCF7, 48 h, read-out: Activity
# A549 [8] = test: Growth inhibition of human A549/ATCC cells assessed as cell growth at 100 uM incubated for 48 hrs by sulforhodamine B assay relative to control; assay type: functional; conditions: A549, 48 h, read-out: Activity
# SW-620 = test: Growth inhibition of human SW620 cells assessed as cell growth at 100 uM incubated for 48 hrs by sulforhodamine B assay relative to control; assay type: functional; conditions: SW-620, 48 h, read-out: Activity
# SF-268 = test: Growth inhibition of human SF268 cells assessed as cell growth at 100 uM incubated for 48 hrs by sulforhodamine B assay relative to control; assay type: functional; conditions: SF-268, 48 h, read-out: Activity
# SF-295 = test: Growth inhibition of human SF295 cells assessed as cell growth at 100 uM incubated for 48 hrs by sulforhodamine B assay relative to control; assay type: functional; conditions: SF-295, 48 h, read-out: Activity
# OVCAR-4 = test: Growth inhibition of human OVCAR4 cells assessed as cell growth at 100 uM incubated for 48 hrs by sulforhodamine B assay relative to control; assay type: functional; conditions: OVCAR-4, 48 h, read-out: Activity
# ACHN = test: Growth inhibition of human ACHN cells assessed as cell growth at 100 uM incubated for 48 hrs by sulforhodamine B assay relative to control; assay type: functional; conditions: read-out: Activity
# UO-31 = test: Growth inhibition of human UO31 cells assessed as cell growth at 100 uM incubated for 48 hrs by sulforhodamine B assay relative to control; assay type: functional; conditions: UO-31, 48 h, read-out: Activity
# PC-3 [9] = test: Growth inhibition of human PC3 cells assessed as cell growth at 100 uM incubated for 48 hrs by sulforhodamine B assay relative to control; assay type: functional; conditions: PC-3, 48 h, read-out: Activity
# MDA-MB-231 = test: Growth inhibition of human MDA-MB-231 cells assessed as cell growth at 100 uM incubated for 48 hrs by sulforhodamine B assay relative to control; assay type: functional; conditions: MDA-MB-231, 48 h, read-out: Activity
# Hs-578T [10] = test: Growth inhibition of human Hs578T cells assessed as cell growth at 100 uM incubated for 48 hrs by sulforhodamine B assay relative to control; assay type: functional; conditions: read-out: Activity
# [11] = read-out: LC50 (the source's name)
# [12] = read-out: pLC50 (the source's name) (converted)
smiles,measurement,setting,value
O=C(Nc1cccc(-n2cc(-c3ccncc3)c(-c3cc(O)cc(Cl)c3)n2)c1)Nc1ccc(Cl)c(Cl)c1,GI50,MOLT-4; read-out: GI50,1.43 µM
same,CC50,MOLT-4; [11],> 100 µM
same,TGI,MOLT-4; read-out: TGI,51.8 µM
same,GI50,MOLT-4; read-out: pGI50 (converted),1.41 µM
same,CC50,MOLT-4; [12],> 100 µM
same,TGI,MOLT-4; read-out: pTGI (converted),5.13 µM
same,IC50,A549 [1],1.96 µM
same,GI50,A549 [1]; read-out: GI50,1.96 µM
same,CC50,A549 [1]; [11],> 100 µM
same,TGI,A549 [1]; read-out: TGI,75.4 µM
same,GI50,A549 [1]; read-out: pGI50 (converted),1.95 µM
same,CC50,A549 [1]; [12],> 100 µM
same,TGI,A549 [1]; read-out: pTGI (converted),7.59 µM
same,GI50,HCC 2998; read-out: GI50,2.93 µM
same,CC50,HCC 2998; [11],7.51 µM
same,TGI,HCC 2998; read-out: TGI,89.9 µM
same,GI50,HCC 2998; read-out: pGI50 (converted),2.95 µM
same,CC50,HCC 2998; [12],77.6 µM
same,TGI,HCC 2998; read-out: pTGI (converted),8.91 µM
same,GI50,SK-MEL-2; read-out: GI50,1.3 µM
same,CC50,SK-MEL-2; [11],9.1 µM
same,TGI,SK-MEL-2; read-out: TGI,40.4 µM
same,GI50,SK-MEL-2; read-out: pGI50 (converted),1.78 µM
same,CC50,SK-MEL-2; [12],9.12 µM
same,TGI,SK-MEL-2; read-out: pTGI (converted),4.07 µM
same,IC50,PC-3 [2],1.69 µM
same,GI50,PC-3 [2]; read-out: GI50,1.59 µM
same,CC50,PC-3 [2]; [11],> 100 µM
same,TGI,PC-3 [2]; read-out: TGI,58.8 µM
same,GI50,PC-3 [2]; read-out: pGI50 (converted),1.7 µM
same,CC50,PC-3 [2]; [12],> 100 µM
same,TGI,PC-3 [2]; read-out: pTGI (converted),5.62 µM
same,GI50,DU-145 [3]; read-out: GI50,2.5 µM
same,CC50,DU-145 [3]; [11],> 100 µM
same,TGI,DU-145 [3]; read-out: TGI,10.1 µM
same,GI50,DU-145 [3]; read-out: pGI50 (converted),2.82 µM
same,CC50,DU-145 [3]; [12],> 100 µM
same,TGI,DU-145 [3]; read-out: pTGI (converted),10.2 µM
same,GI50,Hs-578T [4]; read-out: GI50,3.23 µM
same,CC50,Hs-578T [4]; [11],> 100 µM
same,TGI,Hs-578T [4]; read-out: TGI,> 100 µM
same,GI50,Hs-578T [4]; read-out: pGI50 (converted),3.24 µM
same,CC50,Hs-578T [4]; [12],> 100 µM
same,TGI,Hs-578T [4]; read-out: pTGI (converted),> 100 µM
same,growth at 0.01 µM,HL-60(TB) [5],93%
same,growth at 0.01 µM,NCI-H522,88%
same,growth at 0.1 µM,HL-60(TB) [6],100%
same,growth at 0.1 µM,RPMI-8226,103%
same,growth at 0.1 µM,Malme-3M,84%
same,growth at 0.1 µM,OVCAR-3,101%
same,growth at 1 µM,NCI/ADR-RES,90%
same,growth at 1 µM,CAKI-1,54%
same,growth at 1 µM,RXF 393,38%
same,growth at 1 µM,DU-145 [7],90%
same,growth at 1 µM,MCF7,91%
same,growth at 100 µM,A549 [8],-32%
same,growth at 100 µM,SW-620,-36%
same,growth at 100 µM,SF-268,-11%
same,growth at 100 µM,SF-295,-58%
same,growth at 100 µM,OVCAR-4,9%
same,growth at 100 µM,ACHN,-33%
same,growth at 100 µM,UO-31,-27%
same,growth at 100 µM,PC-3 [9],-35%
same,growth at 100 µM,MDA-MB-231,-24%
same,growth at 100 µM,Hs-578T [10],9%
